In BindingDB's records for PubMed 8102785 (University of Pennsylvania, 1993):
Where a SMILES comes first, the peptide text is derived from it. Bridges are numbered along the chain shown (N, C = ends). [ ]: non-standard residue; d: D form. The star is where a group is joined. ξ: configuration not given here. Phe(4-NO2) = N[C@@H](Cc1ccc([N+](=O)[O-])cc1)C(=O)O; 1Nal = N[CH](Cc1cccc2ccccc12)C(=O)O; 2Nal = N[C@@H](Cc1ccc2ccccc2c1)C(=O)O; d2Nal = N[C@H](Cc1ccc2ccccc2c1)C(=O)O; Thr(3ξ) = CC(O)[C@H](N)C(=O)O; Thr(ol) = C[CH](O)[CH](N)CO; Abu = CC[C@H](N)C(=O)O; Aoc = NCCCCCCCC(=O)O; Ahp = NCCCCCCC(=O)O; Bn = c1ccc(C*)cc1

Each compound was assayed against Somatostatin receptor type 4 (Rattus norvegicus, UniProt P30937).
Chain of Somatostatin receptor type 4 (P30937 whole entry): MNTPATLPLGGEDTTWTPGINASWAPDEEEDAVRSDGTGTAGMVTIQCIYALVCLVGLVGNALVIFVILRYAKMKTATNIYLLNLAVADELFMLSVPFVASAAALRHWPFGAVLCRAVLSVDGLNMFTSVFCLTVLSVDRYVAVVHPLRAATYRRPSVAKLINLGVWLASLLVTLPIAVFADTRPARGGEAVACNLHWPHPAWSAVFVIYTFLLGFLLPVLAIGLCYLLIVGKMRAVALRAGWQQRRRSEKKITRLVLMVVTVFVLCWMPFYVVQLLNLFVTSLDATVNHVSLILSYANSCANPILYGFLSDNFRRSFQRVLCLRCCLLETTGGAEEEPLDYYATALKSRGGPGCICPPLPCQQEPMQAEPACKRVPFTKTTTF

SMILES	Ki
CC[C@@H]1NC(=O)[C@H](CCCCN)NC(=O)[C@@H](Cc2c[nH]c3ccccc23)NC(=O)[C@H](Cc2ccc(O)cc2)NC(=O)[C@@H](NC(=O)[C@H](N)Cc2ccccc2)CSSC[C@@H](C(=O)N[C@H](C(N)=O)[C@@H](C)O)NC1=O [D-Phe-L-Cys(1)-L-Tyr-D-Trp-L-Lys-L-Abu-L-Cys(1)-L-Thr-NH2]	0.18 nM
CC(C)[C@@H]1NC(=O)[C@H](CCCCN)NC(=O)[C@@H](Cc2c[nH]c3ccccc23)NC(=O)[C@H](Cc2ccc(O)cc2)NC(=O)[C@@H](NC(=O)[C@H](N)Cc2ccc3ccccc3c2)CSSC[C@@H](C(=O)N[C@@H](Cc2ccc3ccccc3c2)C(N)=O)NC1=O [BIM 23042] (H-[d2Nal]CY[dW]KVC[2Nal]-NH2; disulfide 2-7)	5.2 nM
C[C@@H](O)[C@@H]1NC(=O)[C@H](CCCCN)NC(=O)[C@@H](Cc2c[nH]c3ccccc23)NC(=O)[C@H](Cc2ccccc2)NC(=O)[C@@H]2CCCN2C(=O)[C@H](Cc2ccccc2)NC1=O (cyclo(PF[dW]KTF))	3.2 nM
CC(O)[C@H](NC(=O)[C@H](CCCCN)NC(=O)[C@@H](Cc1c[nH]c2ccccc12)NC(=O)[C@H](Cc1ccc(O)cc1)NC(=O)[C@@H](C)NC(=O)[C@@H](N)Cc1ccccc1)C(=O)N[C@@H](C)C(=O)N[C@@H](Cc1cccc2ccccc12)C(N)=O (some centres undefined) [BIM 23070] (H-F[dA]Y[dW]K[Thr(3ξ)]A[1Nal]-NH2)	10 nM
CC(O)[C@H](NC(=O)[C@H](CCCCN)NC(=O)[C@@H](Cc1c[nH]c2ccccc12)NC(=O)[C@H](Cc1ccccc1)NC(=O)[C@@H](C)NC(=O)[C@@H](N)Cc1ccccc1)C(=O)N[C@@H](C)C(=O)N[C@H](C(N)=O)[C@@H](C)O (some centres undefined) [BIM 23051] (H-F[dA]F[dW]K[Thr(3ξ)]AT-NH2)	53 nM
CC(C)C1NC(=O)C(CCCCN)NC(=O)C(Cc2c[nH]c3ccccc23)NC(=O)C(Cc2ccc(O)cc2)NC(=O)C(NC(=O)C(N)Cc2cccc3ccccc23)CSSCC(C(=O)NC(CO)C(C)O)NC1=O (centres undefined) [DC23-60] (H-[1Nal]CYWKVC[Thr(ol)]; disulfide 2-7; configuration not given here)	1.5 nM
C[C@@H](Oc1ccccc1)[C@@H]1NC(=O)[C@H](CCCCN)NC(=O)[C@@H](Cc2c[nH]c3ccccc23)NC(=O)[C@H](Cc2ccccc2)NCCCCCCNC1=O [c[Aha-Phe-D-Trp-Lys-Thr(Bzl)]]	51 nM
C[C@@H](O)[C@H](NC(=O)[C@H](Cc1ccccc1)NC(=O)[C@@H](NC(=O)[C@H](CCCCN)NC(=O)[C@@H](Cc1c[nH]c2ccccc12)NC(=O)[C@H](Cc1ccccc1)NC(=O)[C@H](Cc1ccccc1)NC(=O)[C@H](N)Cc1ccccc1)[C@@H](C)O)C(N)=O [CAS_133073-82-2] (H-[dF]FF[dW]KTFT-NH2)	0.002 nM
C[C@@H](O)[C@@H]1NC(=O)[C@H](CCCCN)NC(=O)[C@@H](Cc2c[nH]c3ccccc23)NC(=O)[C@H](Cc2c[nH]c3ccccc23)NC(=O)[C@H](Cc2ccccc2)NC(=O)CCCCCCNC(=O)[C@H](Cc2ccccc2)NC1=O [L-362855] (cyclo([Ahp]FW[dW]KTF))	0.005 nM
CC(C)[C@H](NC(=O)[C@H](CCCCN)NC(=O)[C@@H](Cc1c[nH]c2ccccc12)NC(=O)[C@H](Cc1ccc(O)cc1)NC(=O)[C@H](Cc1ccc([N+](=O)[O-])cc1)NC(=O)[C@H](N)Cc1ccccc1)C(=O)N[C@@H](Cc1ccccc1)C(=O)N[C@H](C(N)=O)[C@@H](C)O [BIM 23066] (H-[dF][Phe(4-NO2)]Y[dW]KVFT-NH2)	2.4 nM
CSCC[C@H](NC(=O)[C@H](C)NC(=O)[C@@H]1CCCN1C(=O)[C@H](CC(N)=O)NC(=O)[C@H](CO)NC(=O)[C@H](CC(N)=O)NC(=O)[C@H](C)NC(=O)[C@@H](N)CO)C(=O)N[C@@H](C)C(=O)N1CCC[C@H]1C(=O)N[C@@H](CCCNC(=N)N)C(=O)N[C@@H](CCC(=O)O)C(=O)N[C@@H](CCCNC(=N)N)C(=O)N[C@@H](CCCCN)C(=O)N[C@@H](C)C(=O)NCC(=O)N[C@H]1CSSC[C@@H](C(=O)O)NC(=O)[C@H](CO)NC(=O)[C@H]([C@@H](C)O)NC(=O)[C@H](Cc2ccccc2)NC(=O)[C@H]([C@@H](C)O)NC(=O)[C@H](CCCCN)NC(=O)[C@H](Cc2c[nH]c3ccccc23)NC(=O)[C@H](Cc2ccccc2)NC(=O)[C@H](Cc2ccccc2)NC(=O)[C@H](CC(N)=O)NC(=O)[C@H](CCCCN)NC1=O [somatostatin-28]	0.23 nM
CC(C)[C@@H]1NC(=O)[C@H](CCCCN)NC(=O)[C@@H](Cc2c[nH]c3ccccc23)NC(=O)[C@H](Cc2ccc(O)cc2)NC(=O)[C@@H](NC(=O)[C@H](N)Cc2ccc3ccccc3c2)CSSC[C@@H](C(=O)N[C@H](C(N)=O)[C@@H](C)O)NC1=O [3-(2-Naphtyl)-D-Ala-L-Cys(1)-L-Tyr-D-Trp-L-Lys-L-Val-L-Cys(1)-L-Thr-NH2]	0.1 nM
C[C@@H](OCc1ccccc1)[C@@H]1NC(=O)[C@H](CCCCN)NC(=O)[C@@H](Cc2c[nH]c3ccccc23)NC(=O)[C@H](Cc2ccccc2)NC(=O)CCCCCCCNC1=O [c[Aoc-Phe-D-Trp-Lys-Thr(Bzl)]] (cyclo([Aoc]F[dW]KT(Bn)))	50 nM
CC[C@@H]1NC(=O)[C@H](CCCCN)NC(=O)[C@@H](Cc2c[nH]c3ccccc23)NC(=O)[C@H](Cc2ccc(O)cc2)NC(=O)[C@@H](NC(=O)[C@H](N)Cc2ccccc2)CSSC[C@@H](C(=O)N[C@@H](Cc2ccc3ccccc3c2)C(N)=O)NC1=O [D-Phe-Cys-Tyr-D-Trp-Lys-Abu-Cys-Nal-NH] (H-[dF]CY[dW]K[Abu]C[2Nal]-NH2; disulfide 2-7)	6 nM
